The test system of assay [1] is S. mansoni schistosomula. Set-up: method as in PMID 24086136. The conditions noted are these: at 100 µM; cited from earlier work.
Assay [2] addresses T1, hsHDAC1 (Homo sapiens, UniProt Q13547).
T1 construct: purchased BPS Bioscience
Nature of the assay: hsHDAC1 in vitro inhibition assay. It is filed as biochemical. Particulars: mean ± S.E.; ZMAL 10.5 µM, 90 min at 37 °C. How it is done: (§1) The biological assay was carried out using purified smHDAC8 protein and the small molecule substrate Z(Tfa)Lys-AMC (ZMTFAL) as previously reported. To assess the selectivity, the selected compounds were further tested against the human orthologue hsHDAC8 as well as the major human HDAC isoforms (HDAC1 and -6) using an established in vitro assay. […] Recombinant human HDAC1 and HDAC6 were purchased from BPS Bioscience. Recombinant human HDAC8 was expressed and purified as previously described. Recombinant smHDAC8 enzyme was produced in E. coli cells and purified by a method previously described by us. Inhibition assays of smHDAC8 and human HDACs were performed as already described in previous publications. Briefly, the commercial Fluor de Lys kit (BML-KI178) was used for testing inhibition of smHDAC8 and hsHDAC8. Test compounds, Fluor de Lys-HDAC8 substrate (50 µM) and enzyme were incubated for 90 min at 37 °C with subsequent addition of 50 μL Developer II (BML-KI176) and further incubation for 45 min at 30 °C. Fluorescence was measured in a plate reader (BMG Polarstar) with excitation at λ = 390 nm and emission at λ = 460 nm. Inhibition tests of human HDAC1 and 6 were conducted using ZMAL (Cbz-(Ac)Lys-AMC) as substrate and trypsin as a developer. […] Trichostatin A (2 µM) was used in both assays to stop the reaction. Fluorescence was measured similarly as mentioned above. IC50 values were determined with OriginPro (version 9.0.0, Northampton, MA, USA). IC50 Values in Table 1 are given as mean ± S.E.

Assay [3] has as its target T2, hsHDAC8 (Homo sapiens, UniProt Q9BY41).
T2 construct: made in house
T2 sequence (Q9BY41 1-377): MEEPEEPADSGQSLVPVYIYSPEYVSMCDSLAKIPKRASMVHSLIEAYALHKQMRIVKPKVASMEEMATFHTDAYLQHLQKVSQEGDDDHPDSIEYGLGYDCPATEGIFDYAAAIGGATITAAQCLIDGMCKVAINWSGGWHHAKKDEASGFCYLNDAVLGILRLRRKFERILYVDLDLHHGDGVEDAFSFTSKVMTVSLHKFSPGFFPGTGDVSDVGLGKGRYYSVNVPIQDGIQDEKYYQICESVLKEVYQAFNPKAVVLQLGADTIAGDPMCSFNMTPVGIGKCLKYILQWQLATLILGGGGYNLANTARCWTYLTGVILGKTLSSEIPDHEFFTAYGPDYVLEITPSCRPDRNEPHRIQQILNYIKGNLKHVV
The assay can be described thus: hsHDAC8 in vitro inhibition assay. The conditions noted are these: mean ± S.E.; Fluor de Lys-HDAC8 substrate 50 µM, 90 min at 37 °C. Type of assay: biochemical. How it is done:
as §1

The target of assay [4] is T3, smHDAC8 (Schistosoma mansoni, UniProt A5H660).
T3 construct: made in house; host or cells: E. coli
T3 sequence (A5H660 1-440): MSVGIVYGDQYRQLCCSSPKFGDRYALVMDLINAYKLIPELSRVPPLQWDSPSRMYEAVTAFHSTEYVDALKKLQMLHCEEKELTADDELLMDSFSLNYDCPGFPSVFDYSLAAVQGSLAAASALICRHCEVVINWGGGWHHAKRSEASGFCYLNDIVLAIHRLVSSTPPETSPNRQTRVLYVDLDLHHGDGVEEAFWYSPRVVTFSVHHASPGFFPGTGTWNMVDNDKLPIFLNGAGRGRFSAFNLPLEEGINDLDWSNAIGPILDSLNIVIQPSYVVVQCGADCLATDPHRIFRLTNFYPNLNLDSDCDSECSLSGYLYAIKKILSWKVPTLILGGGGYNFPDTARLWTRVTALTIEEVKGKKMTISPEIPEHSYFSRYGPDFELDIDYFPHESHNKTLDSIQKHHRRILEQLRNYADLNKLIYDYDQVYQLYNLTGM
The assay can be described thus: smHDAC8 in vitro inhibition assay. Type of assay: biochemical. The conditions noted are these: for IC50: mean ± S.E., Fluor de Lys-HDAC8 substrate 50 µM, 90 min at 37 °C. How it is done: The biological assay was carried out using purified smHDAC8 protein and the small molecule substrate Z(Tfa)Lys-AMC (ZMTFAL) as previously reported. To assess the selectivity, the selected compounds were further tested against the human orthologue hsHDAC8 as well as the major human HDAC isoforms (HDAC1 and -6) using an established in vitro assay.
Recombinant human HDAC1 and HDAC6 were purchased from BPS Bioscience. Recombinant human HDAC8 was expressed and purified as previously described. Recombinant smHDAC8 enzyme was produced in E. coli cells and purified by a method previously described by us. Inhibition assays of smHDAC8 and human HDACs were performed as already described in previous publications. Briefly, the commercial Fluor de Lys kit (BML-KI178) was used for testing inhibition of smHDAC8 and hsHDAC8. Test compounds, Fluor de Lys-HDAC8 substrate (50 µM) and enzyme were incubated for 90 min at 37 °C with subsequent addition of 50 μL Developer II (BML-KI176) and further incubation for 45 min at 30 °C. Fluorescence was measured in a plate reader (BMG Polarstar) with excitation at λ = 390 nm and emission at λ = 460 nm. Inhibition tests of human HDAC1 and 6 were conducted using ZMAL (Cbz-(Ac)Lys-AMC) as substrate and trypsin as a developer. […] Trichostatin A (2 µM) was used in both assays to stop the reaction. Fluorescence was measured similarly as mentioned above. IC50 values were determined with OriginPro (version 9.0.0, Northampton, MA, USA). IC50 Values in Table 1 are given as mean ± S.E.

Assay [5] concerns the target T4, hsHDAC6 (Homo sapiens, UniProt Q9UBN7).
T4 construct: purchased BPS Bioscience
T4 sequence (Q9UBN7 1-1215): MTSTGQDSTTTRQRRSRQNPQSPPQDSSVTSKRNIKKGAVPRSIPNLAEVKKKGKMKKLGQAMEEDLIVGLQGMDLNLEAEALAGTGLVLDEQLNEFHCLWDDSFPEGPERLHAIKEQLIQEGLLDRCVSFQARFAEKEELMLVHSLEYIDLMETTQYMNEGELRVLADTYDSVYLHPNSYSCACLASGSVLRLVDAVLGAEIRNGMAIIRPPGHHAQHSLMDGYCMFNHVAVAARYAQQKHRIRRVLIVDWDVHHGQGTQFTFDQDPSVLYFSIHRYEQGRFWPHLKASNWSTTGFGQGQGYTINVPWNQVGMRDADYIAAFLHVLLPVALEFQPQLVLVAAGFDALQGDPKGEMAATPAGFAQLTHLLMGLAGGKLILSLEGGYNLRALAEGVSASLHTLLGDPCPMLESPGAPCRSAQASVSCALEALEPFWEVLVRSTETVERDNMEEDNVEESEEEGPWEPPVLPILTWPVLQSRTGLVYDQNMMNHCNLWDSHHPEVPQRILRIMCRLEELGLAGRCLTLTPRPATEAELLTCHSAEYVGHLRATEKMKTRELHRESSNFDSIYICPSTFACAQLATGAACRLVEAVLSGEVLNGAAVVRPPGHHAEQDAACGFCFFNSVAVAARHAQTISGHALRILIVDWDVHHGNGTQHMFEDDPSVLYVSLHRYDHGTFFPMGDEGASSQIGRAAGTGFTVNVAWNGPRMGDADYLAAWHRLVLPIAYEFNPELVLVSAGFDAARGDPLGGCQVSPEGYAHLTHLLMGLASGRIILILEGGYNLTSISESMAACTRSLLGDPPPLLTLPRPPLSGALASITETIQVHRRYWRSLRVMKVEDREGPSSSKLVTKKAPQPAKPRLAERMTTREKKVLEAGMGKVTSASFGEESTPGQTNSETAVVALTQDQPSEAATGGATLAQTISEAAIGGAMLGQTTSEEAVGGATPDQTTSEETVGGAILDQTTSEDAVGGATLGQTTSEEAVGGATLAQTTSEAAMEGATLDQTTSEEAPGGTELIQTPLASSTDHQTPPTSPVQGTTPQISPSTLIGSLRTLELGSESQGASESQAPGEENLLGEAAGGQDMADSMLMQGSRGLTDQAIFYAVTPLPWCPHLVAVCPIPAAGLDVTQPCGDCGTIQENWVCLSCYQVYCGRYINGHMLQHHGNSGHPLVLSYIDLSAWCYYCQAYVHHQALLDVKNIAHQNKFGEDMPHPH
The assay can be described thus: hsHDAC6 in vitro inhibition assay. Type of assay: biochemical. Particulars: for IC50: mean ± S.E., ZMAL 10.5 µM, 90 min at 37 °C. How it is done:
as §1

The test system of assay [6] is S. mansoni schistosomula. The assay can be described thus: Apoptosis induction in schistosomula (TUNEL). Type of assay: cell-based, Schistosoma mansoni. Particulars: 100 µM, after 3 days. How it is done: The compound J1036 induced dose-dependent apoptosis in the infective larval stage (schistosomula) of S. mansoni, affecting 67% of the larvae after 3 days at a dose of 100 µM (Figure 4), whereas a polar hydroxamate derivative (J1038) identified by a previous virtual screening was ineffective in the same assay (data not shown here). […]. Although we cannot directly correlate the inhibitory activity on smHDAC8 with the lethal effect of J1036 on schistosomula, the high level of expression of this class I HDAC [21] in the parasite, and its validation as a stand-alone target by transcript knockdown, mean that its inhibition is sufficient to induce the effects observed.
Figure 4 J1036 induces apoptosis in S. mansoni schistosomula in vitro. (A) Dose-dependent induction of apoptosis determined by dUTP nick end labeling (TUNEL) shown as the percentage of parasites positively labeled; (B) TUNEL staining of schistosomula treated with 100 µM J1036 for 3 days. Parasites were counterstained using 4′,6-Diamidino-2-Phenylindole (DAPI).
The capacity of compounds J1036 and J1038 to induce apoptosis in S. mansoni schistosomula was measured using dUTP nick end labelling (TUNEL) and the In Situ Cell Death Detection Kit TMR (Roche Applied Science, Penzberg, Germany) exactly as previously described.

The IC50 is the concentration that gives 50% inhibition. As a reminder, the inhibition is the drop in the measured response relative to a control, in per cent. Low readings indicate a weak effect, high ones a strong effect.

T1 sequence (Q13547 whole entry): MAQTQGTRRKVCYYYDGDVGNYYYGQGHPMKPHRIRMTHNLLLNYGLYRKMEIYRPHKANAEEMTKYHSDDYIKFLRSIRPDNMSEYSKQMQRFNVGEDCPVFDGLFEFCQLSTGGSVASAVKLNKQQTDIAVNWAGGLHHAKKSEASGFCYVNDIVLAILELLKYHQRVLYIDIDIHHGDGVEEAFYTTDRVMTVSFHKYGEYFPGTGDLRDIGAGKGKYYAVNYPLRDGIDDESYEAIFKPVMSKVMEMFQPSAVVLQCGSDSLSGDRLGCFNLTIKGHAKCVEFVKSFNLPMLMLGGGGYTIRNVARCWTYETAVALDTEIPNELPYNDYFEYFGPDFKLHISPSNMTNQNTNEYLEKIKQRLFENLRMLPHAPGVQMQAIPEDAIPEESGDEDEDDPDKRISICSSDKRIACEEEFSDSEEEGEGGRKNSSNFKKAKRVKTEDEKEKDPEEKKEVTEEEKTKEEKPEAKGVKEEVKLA

For the compound `O=C(CCCCCCC(=O)Nc1ccccc1)NO` [SAHA], in assay [1], the “apoptosis, percentage of larvae affected” value is reported as 43%.

In the case of `CCCCCC(=O)N(O)C1CC(=O)N(c2ccccc2)C1=O` (stereo not shown) [J1058], the IC50 in assay [2] turned out to be 26 ± 2.4 µM; in assay [3] it was 3.99 ± 0.74 µM; in assay [4] it was 20.3 ± 2.78 µM; in assay [5], 6.2 ± 0.41 µM.

As for `CCCCC(=O)N(O)C1CC(=O)N(c2ccccc2)C1=O` (stereo not shown) [J1057], the IC50 in assay [2] turned out to be 42.1 ± 2.2 µM; in assay [3] it was 2.62 ± 0.19 µM; in assay [4] it was 13.2 ± 1.85 µM; in assay [5], 6.2 ± 0.34 µM.

The compound `CCCCCCC(=O)N(O)C1CC(=O)N(c2cccc(Cl)c2C)C1=O` (stereo not shown) [J1066] returned an inhibition at 25 µM in assay [4] (at 25 µM) of 13%.

As for `CCCCCCC(=O)N(O)C1CC(=O)N(c2ccc(Br)cc2)C1=O` (stereo not shown) [J1063], the half-maximal inhibitory concentration (IC50) in assay [2] came to 1.42 ± 0.13 µM; in assay [3], 7.72 ± 4.42 µM; in assay [4], 5.9 ± 1.6 µM; in assay [5], 0.77 ± 0.09 µM. Also, the “inhibitory activity against HDAC6 (in words)” value (from here on “inhibitory activity”) in assay [5] was “submicromolar”.

Regarding `CCCCCCC(=O)N(O)C1CC(=O)N(c2ccccc2)C1=O` (stereo not shown) [J1060], the concentration for half-maximal inhibition (IC50) in assay [2] came to 5 ± 0.42 µM; in assay [3], 1.8 ± 0.24 µM; in assay [4] it was 11.5 ± 0.91 µM; in assay [5] it was 0.86 ± 0.12 µM. For the same compound, the “inhibitory activity” value in assay [5] is reported as “submicromolar”.

With `CCCCCCC(=O)N(O)C1CC(=O)N(c2ccc(C)cc2)C1=O` (stereo not shown) [J1065], the half-maximal inhibitory concentration (IC50) in assay [2] is 8.4 ± 0.28 µM; in assay [3], 3.96 ± 0.6 µM; in assay [4], 20.2 ± 2.7 µM; in assay [5] it was 1.57 ± 0.37 µM.

For the compound `CCCCCCC(=O)N(O)C1CC(=O)N(c2ccc(Cl)cc2)C1=O` (stereo not shown) [J1061], the IC50 amounted to 3.98 ± 0.45 µM in assay [2], 7.69 ± 3.3 µM in assay [3], 5.5 ± 0.7 µM in assay [4] and 2.65 ± 0.29 µM in assay [5].

For the compound `O=C(NO)c1sc2ccccc2c1Cl` [J1075], the “apoptosis, percentage of larvae affected” value in assay [1] is reported as 54%.

Turning to `COc1ccc(C(=O)NO)cc1NC(=O)c1ccc(-c2ccccc2)cc1` [TH65, reference compound], the 50% inhibitory concentration (IC50) came to 6.3 ± 2.1 µM in assay [2], 0.026 ± 0.017 µM in assay [3], 0.075 ± 0.025 µM in assay [4] and 0.39 ± 0.002 µM in assay [5].

For `CCCCCCC(=O)N(O)C1CC(=O)N(c2ccc(F)cc2)C1=O` (stereo not shown) [J1064], the IC50 in assay [2] was 4.3 ± 0.46 µM; in assay [3] it was 2.08 ± 0.34 µM; in assay [4], 7.79 ± 0.28 µM; in assay [5], 0.6 ± 0.12 µM. Further, in assay [5], the “inhibitory activity” value is “submicromolar”.

Turning to `CCCCCC(=O)N(O)C1CC(=O)N(c2ccc(Cl)cc2)C1=O` (stereo not shown) [J1036], the half-inhibitory concentration (IC50) was found to be 6.76 ± 0.97 µM in assay [2], 0.49 ± 0.18 µM in assay [3], 4.4 ± 0.17 µM in assay [4] and 5.02 ± 0.31 µM in assay [5]. Also, in assay [6], the “apoptosis, percentage of larvae affected (TUNEL positive)” value was found to be 67%.

Values taken from PMC6017931, “A Novel Class of Schistosoma mansoni Histone Deacetylase 8 (HDAC8) Inhibitors Identified by Structure-Based Virtual Screening and In Vitro Testing” (Molecules : A Journal of Synthetic Chemistry and Natural …, 2018).
